Test results from patent US9149416B1, “High deposition cleansing system” (WELLMARK INTERNATIONAL, priority 2008, dated 2015).

System: adult cat fleas
Assay: Residual flea efficacy trials on infested cats (Studies A-D)
Assay type: in vivo
Settings: cleansing system 40 mg/kg vs topical at average 225 mg/kg
Procedure: The efficacy trials were performed using protocols that required the experimental group of infested cats to be compared with an untreated group of similarly infested animals.
The cleansing emulsion system formulation, containing 0.5% etofenprox was applied to the wet animals at the rate of 8 grams of cleansing system per kg of animal body weight. The 40% etofenprox topical was applied at the rate of 1 ml per cat for weights up to 5 lbs. (2.2 kg) and 2 ml per cat for those weighing greater than 5 lbs. (2.2 kg). The average rate of etofenprox applied to the cleansing system treated cats was 40 mg etofenprox per kg of body weight. The average rate of etofenprox applied to the topical treated cats was 225 mg per kg of body weight.
All test animals were infested with 100 unfed adult cat fleas prior to treatment. The cats were examined for the presence of live fleas at 24 to 48 hours after treatment. Residual data points were accomplished by infesting the treated animals at 14, 21 and 28 days after treatment. The animals were then examined for the presence of live fleas 48 hours after each infestation.

For `CCOc1ccc(C(C)(C)COCc2cccc(Oc3ccccc3)c2)cc1` [Etofenprox], the “residual adult flea kill / residual efficacy compared with topical” value was “residual efficacy results similar to 225 mg/kg BW rates required for topical formulations”.
